# Counter-ions that a name gives are not always drawn. Like-named read-outs stand apart in the source and are kept apart here.
# Target: T1, HiBiT tagged PARP14 (Homo sapiens, UniProt Q460N5)
# T1 construct: engineered to contain a HiBiT tag on both alleles of the PARP14 gene; endogenous in cells; host or cells: Jurkat cells stably transfected with LgBiT (Promega), PARP14 locus edited by CRISPR/Cas9
# Assay: HiBiT assay for the degradation of PARP14 (HiBiT tagged PARP14 in LgBiT expressing Jurkat cells, 2 or 24 hours)
# Format: cell-based
# Conditions: Assay B (Example B): HiBiT tagged PARP14 degradation in LgBiT expressing Jurkat cells
# Method: Jurkat cells stably transfected with LgBiT (Promega) were engineered to contain a HiBiT tag on both alleles of the PARP14 gene (Genbank Accession Number: NM_017554) via CRISPR/Cas9 editing. The HiBiT tag is an 11 amino acid tag created by Promega that associates with LgBiT protein to form the NanoLuc® tag on the C-terminus of PARP14. Clones were isolated and confirmed for the HiBiT tag via Sanger sequencing.
# Degradation of PARP14 protein was assessed by measuring the luminescence of the HiBiT tag associating with the LgBiT protein as a proxy for the PARP14 protein.
# Jurkat cells were diluted to 250,000 cells per mL and then added to assay plate (Corning 3574) using a Multidrop (Thermo Fisher) to add 20 μL per well of the 384 well plate, resulting in 5,000 cells per well. 20 nL of a dose response curve diluted in DMSO of each test compound was added to the cell plate using a Mosquito (TTP Labtech) and the plate was incubated at 37° C. for 2 or 24 hours. Assay plate was brought to room temperature then 5 μL per well of Live Cell Substrate (Promega) was added to the plate. Luminescence was measured on an Envision (Perkin Elmer).
# The average DMSO was calculated from 32 wells containing 0.1% DMSO only in columns 12 and 24 of the assay plate. The % of DMSO values were calculated as described below: […]
# The % of DMSO values were plotted as a function of compound concentration and the following 4-parameter fit was applied to derive the DC50 values:
# where top, bottom, and Hill Coefficient are allowed to float. Y is the % of DMSO and X is the compound concentration.
# DC50 data for the Example compounds is provided below in Table 2 (“+” is ≤0.03 μM; “++” is ≥0.03 μM).
# T1 sequence (Q460N5 whole entry): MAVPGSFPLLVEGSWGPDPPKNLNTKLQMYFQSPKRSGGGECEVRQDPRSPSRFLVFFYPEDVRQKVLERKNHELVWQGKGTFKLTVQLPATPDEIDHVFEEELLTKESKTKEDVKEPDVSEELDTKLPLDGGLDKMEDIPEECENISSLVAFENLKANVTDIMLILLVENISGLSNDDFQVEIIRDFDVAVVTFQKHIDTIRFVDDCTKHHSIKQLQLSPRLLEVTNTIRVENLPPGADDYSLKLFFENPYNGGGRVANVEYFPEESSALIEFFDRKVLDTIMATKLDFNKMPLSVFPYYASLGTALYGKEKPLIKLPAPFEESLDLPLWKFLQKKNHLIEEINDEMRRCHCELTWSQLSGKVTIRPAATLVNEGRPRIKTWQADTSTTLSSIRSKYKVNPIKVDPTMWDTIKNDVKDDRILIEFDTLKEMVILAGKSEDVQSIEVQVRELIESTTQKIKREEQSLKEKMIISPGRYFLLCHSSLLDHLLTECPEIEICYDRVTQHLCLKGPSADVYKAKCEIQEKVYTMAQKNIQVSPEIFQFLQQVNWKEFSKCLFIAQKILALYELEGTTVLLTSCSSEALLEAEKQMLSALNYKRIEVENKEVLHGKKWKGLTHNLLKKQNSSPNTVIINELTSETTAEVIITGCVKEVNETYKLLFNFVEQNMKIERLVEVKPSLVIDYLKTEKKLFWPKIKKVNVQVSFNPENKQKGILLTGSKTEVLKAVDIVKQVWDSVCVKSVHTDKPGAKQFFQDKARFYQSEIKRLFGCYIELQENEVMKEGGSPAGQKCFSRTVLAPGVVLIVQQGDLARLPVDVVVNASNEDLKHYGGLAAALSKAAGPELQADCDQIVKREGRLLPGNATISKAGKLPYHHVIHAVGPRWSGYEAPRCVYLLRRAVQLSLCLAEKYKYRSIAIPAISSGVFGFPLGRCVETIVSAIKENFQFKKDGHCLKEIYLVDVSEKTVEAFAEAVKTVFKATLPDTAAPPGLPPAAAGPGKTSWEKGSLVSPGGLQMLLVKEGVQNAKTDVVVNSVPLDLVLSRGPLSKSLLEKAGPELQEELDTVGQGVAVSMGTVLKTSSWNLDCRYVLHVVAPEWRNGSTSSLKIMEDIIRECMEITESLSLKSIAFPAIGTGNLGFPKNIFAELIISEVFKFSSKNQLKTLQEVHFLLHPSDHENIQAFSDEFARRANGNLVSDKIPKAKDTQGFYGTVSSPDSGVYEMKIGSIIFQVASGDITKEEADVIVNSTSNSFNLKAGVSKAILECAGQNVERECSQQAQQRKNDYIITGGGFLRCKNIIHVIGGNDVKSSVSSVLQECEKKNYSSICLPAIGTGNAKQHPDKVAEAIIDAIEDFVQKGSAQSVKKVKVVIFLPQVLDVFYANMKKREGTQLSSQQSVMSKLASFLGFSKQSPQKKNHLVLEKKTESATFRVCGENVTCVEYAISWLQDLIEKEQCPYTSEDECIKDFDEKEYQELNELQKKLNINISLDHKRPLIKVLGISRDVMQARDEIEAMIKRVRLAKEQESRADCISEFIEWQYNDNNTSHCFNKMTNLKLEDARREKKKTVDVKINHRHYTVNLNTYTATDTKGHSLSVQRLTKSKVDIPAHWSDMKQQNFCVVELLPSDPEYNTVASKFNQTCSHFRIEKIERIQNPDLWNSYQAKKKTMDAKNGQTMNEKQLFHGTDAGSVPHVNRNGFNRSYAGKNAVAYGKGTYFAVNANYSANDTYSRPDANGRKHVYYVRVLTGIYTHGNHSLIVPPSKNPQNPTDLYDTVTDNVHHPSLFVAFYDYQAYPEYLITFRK
SMILES,DC50 [nM],DC50 (read-out: DC50) [nM]
"O=C1CCC(Nc2ccc(N3CCN(CCN4CCC(COc5cc(F)c6c(=O)[nH]c(COC7CCOCC7)nc6c5)CC4)CC3)c(F)c2)C(=O)N1 (racemic) [Example 99, 3-((3-fluoro-4-(4-(2-(4-(((5-fluoro-4-oxo-2-(((tetrahydro-2H-pyran-4-yl)oxy)methyl)-3,4-dihydroquinazolin-7-yl)oxy)methyl)piperidin-1-yl)ethyl)piperazin-1-yl)phenyl)amino)piperidine-2,6-dione]",< 30,
"O=C1CCC(Nc2ccc(N3CCN(CCN4CCC(COc5cc(F)c6c(=O)[nH]c(CSC7CCOCC7)nc6c5)CC4)CC3)c(F)c2)C(=O)N1 (single isomer, unassigned) [Example 64a, 3-((3-fluoro-4-(4-(2-(4-(((5-fluoro-4-oxo-2-(((tetrahydro-2H-pyran-4-yl)thio)methyl)-3,4-dihydroquinazolin-7-yl)oxy)methyl)piperidin-1-yl)ethyl)piperazin-1-yl)phenyl)amino)piperidine-2,6-dione]",,< 30
"O=C1CCC(Nc2ccc(N3CCN(CCN4CCC(COc5cc(F)c6c(=O)[nH]c(CSC7CCOCC7)nc6c5)CC4)CC3)c(F)c2)C(=O)N1 (single isomer, unassigned) [Example 64b, 3-((3-fluoro-4-(4-(2-(4-(((5-fluoro-4-oxo-2-(((tetrahydro-2H-pyran-4-yl)thio)methyl)-3,4-dihydroquinazolin-7-yl)oxy)methyl)piperidin-1-yl)ethyl)piperazin-1-yl)phenyl)amino)piperidine-2,6-dione]",,< 30
"O=C1CCC(Nc2ccc(N3CCN(CCN4CCC(COc5cc(F)c6c(=O)[nH]c(COC7CCOCC7)nc6c5)CC4)CC3)c(F)c2)C(=O)N1 (single isomer, unassigned) [Example 99a, 3-((3-fluoro-4-(4-(2-(4-(((5-fluoro-4-oxo-2-(((tetrahydro-2H-pyran-4-yl)oxy)methyl)-3,4-dihydroquinazolin-7-yl)oxy)methyl)piperidin-1-yl)ethyl)piperazin-1-yl)phenyl)amino)piperidine-2,6-dione]",,< 30
"O=C1CCC(Nc2ccc(N3CCN(CCN4CCC(COc5cc(F)c6c(=O)[nH]c(COC7CCOCC7)nc6c5)CC4)CC3)c(F)c2)C(=O)N1 (single isomer, unassigned) [Example 99b, 3-((3-fluoro-4-(4-(2-(4-(((5-fluoro-4-oxo-2-(((tetrahydro-2H-pyran-4-yl)oxy)methyl)-3,4-dihydroquinazolin-7-yl)oxy)methyl)piperidin-1-yl)ethyl)piperazin-1-yl)phenyl)amino)piperidine-2,6-dione]",,< 30
"O=C1CCC(Nc2ccc(N3CCC(N4CC(N5CCC(COc6cc(F)c7c(=O)[nH]c(CSC8CCOCC8)nc7c6)CC5)C4)CC3)c(F)c2)C(=O)N1 (single isomer, unassigned) [Example 116a, 3-((3-fluoro-4-(4-(3-(4-(((5-fluoro-4-oxo-2-(((tetrahydro-2H-pyran-4-yl)thio)methyl)-3,4-dihydroquinazolin-7-yl)oxy)methyl)piperidin-1-yl)azetidin-1-yl)piperidin-1-yl)phenyl)amino)piperidine-2,6-dione]",,< 30
"O=C1CCC(Nc2ccc(N3CCC(N4CC(N5CCC(COc6cc(F)c7c(=O)[nH]c(CSC8CCOCC8)nc7c6)CC5)C4)CC3)c(F)c2)C(=O)N1 (single isomer, unassigned) [Example 116b, 3-((3-fluoro-4-(4-(3-(4-(((5-fluoro-4-oxo-2-(((tetrahydro-2H-pyran-4-yl)thio)methyl)-3,4-dihydroquinazolin-7-yl)oxy)methyl)piperidin-1-yl)azetidin-1-yl)piperidin-1-yl)phenyl)amino)piperidine-2,6-dione]",,< 30
"O=C1CCC(Nc2ccc(N3CCC(N4CCC(COc5cc(F)c6c(=O)[nH]c(CCC7CCOCC7)nc6c5)CC4)CC3)c(F)c2)C(=O)N1 (single isomer, unassigned) [Example 117a, 3-((3-fluoro-4-(4-(((5-fluoro-4-oxo-2-(2-(tetrahydro-2H-pyran-4-yl)ethyl)-3,4-dihydroquinazolin-7-yl)oxy)methyl)-[1,4′-bipiperidin]-11′-yl)phenyl)amino)piperidine-2,6-dione]",,< 30
"O=C1CCC(Nc2ccc(N3CCC(N4CCC(COc5cc(F)c6c(=O)[nH]c(CCC7CCOCC7)nc6c5)CC4)CC3)c(F)c2)C(=O)N1 (single isomer, unassigned) [Example 117b, 3-((3-fluoro-4-(4-(((5-fluoro-4-oxo-2-(2-(tetrahydro-2H-pyran-4-yl)ethyl)-3,4-dihydroquinazolin-7-yl)oxy)methyl)-[1,4′-bipiperidin]-11′-yl)phenyl)amino)piperidine-2,6-dione]",,< 30
"O=C1CCC(Nc2ccc(N3CCC(N4CC(N5CCC(COc6cc(F)c7c(=O)[nH]c(COC8CCOCC8)nc7c6)CC5)C4)CC3)c(F)c2)C(=O)N1 (single isomer, unassigned) [Example 136a, 3-((3-fluoro-4-(4-(3-(4-(((5-fluoro-4-oxo-2-(((tetrahydro-2H-pyran-4-yl)oxy)methyl)-3,4-dihydroquinazolin-7-yl)oxy)methyl)piperidin-1-yl)azetidin-1-yl)piperidin-1-yl)phenyl)amino)piperidine-2,6-dione]",,< 30
"O=C1CCC(Nc2ccc(N3CCC(N4CC(N5CCC(COc6cc(F)c7c(=O)[nH]c(COC8CCOCC8)nc7c6)CC5)C4)CC3)c(F)c2)C(=O)N1 (single isomer, unassigned) [Example 136b, 3-((3-fluoro-4-(4-(3-(4-(((5-fluoro-4-oxo-2-(((tetrahydro-2H-pyran-4-yl)oxy)methyl)-3,4-dihydroquinazolin-7-yl)oxy)methyl)piperidin-1-yl)azetidin-1-yl)piperidin-1-yl)phenyl)amino)piperidine-2,6-dione]",,< 30
"Cn1c(=O)n(C2CCC(=O)NC2=O)c2ccc(N3CCN(CCN4CCC(COc5cc(F)c6c(=O)[nH]c(CSC7CCOCC7)nc6c5)CC4)CC3)cc21 (centres unmarked) [Example 91, 3-(5-(4-(2-(4-(((5-fluoro-4-oxo-2-(((tetrahydro-2H-pyran-4-yl)thio)methyl)-3,4-dihydroquinazolin-7-yl)oxy)methyl)piperidin-1-yl)ethyl)piperazin-1-yl)-3-methyl-2-oxo-2,3-dihydro-1H-benzo[d]imidazol-1-yl)piperidine-2,6-dione]",,< 30
"O=C1CCC(Nc2ccc3c(c2)CN(CCN2CCC(COc4cc(F)c5c(=O)[nH]c(CSC6CCOCC6)nc5c4)CC2)C3)C(=O)N1 (centres unmarked) [Example 92, 3-((2-(2-(4-(((5-fluoro-4-oxo-2-(((tetrahydro-2H-pyran-4-yl)thio)methyl)-3,4-dihydroquinazolin-7-yl)oxy)methyl)piperidin-1-yl)ethyl)isoindolin-5-yl)amino)piperidine-2,6-dione]",,< 30
"O=C1CCC(NC(=O)c2ccc(N3CCN(CCN4CCC(COc5cc(F)c6c(=O)[nH]c(CSC7CCOCC7)nc6c5)CC4)CC3)cc2F)C(=O)N1 (centres unmarked) [Example 93, N-(2,6-dioxopiperidin-3-yl)-2-fluoro-4-(4-(2-(4-(((5-fluoro-4-oxo-2-(((tetrahydro-2H-pyran-4-yl)thio)methyl)-3,4-dihydroquinazolin-7-yl)oxy)methyl)piperidin-1-yl)ethyl)piperazin-1-yl)benzamide]",,< 30
"O=C1CCC(Nc2ccc(N3CCN(CCN4CCC(COc5cc(F)c6c(=O)[nH]c(CSC7CCOCC7)nc6c5)CC4)CC3)cc2F)C(=O)N1 (centres unmarked) [Example 97, 3-((2-fluoro-4-(4-(2-(4-(((5-fluoro-4-oxo-2-(((tetrahydro-2H-pyran-4-yl)thio)methyl)-3,4-dihydroquinazolin-7-yl)oxy)methyl)piperidin-1-yl)ethyl)piperazin-1-yl)phenyl)amino)piperidine-2,6-dione]",,< 30
"O=C1CCC(Nc2cc(F)c(N3CCN(CCN4CCC(COc5cc(F)c6c(=O)[nH]c(CSC7CCOCC7)nc6c5)CC4)CC3)c(F)c2)C(=O)N1 (centres unmarked) [Example 98, 3-((3,5-difluoro-4-(4-(2-(4-(((5-fluoro-4-oxo-2-(((tetrahydro-2H-pyran-4-yl)thio)methyl)-3,4-dihydroquinazolin-7-yl)oxy)methyl)piperidin-1-yl)ethyl)piperazin-1-yl)phenyl)amino)piperidine-2,6-dione formate]",,< 30
"O=C1CCC(Nc2ccc(N3CCN(CCN4CCC(COc5cc(F)c6c(=O)[nH]c(CCC7CCOCC7)nc6c5)CC4)CC3)c(F)c2)C(=O)N1 (centres unmarked) [Example 100, 3-((3-fluoro-4-(4-(2-(4-(((5-fluoro-4-oxo-2-(2-(tetrahydro-2H-pyran-4-yl)ethyl)-3,4-dihydroquinazolin-7-yl)oxy)methyl)piperidin-1-yl)ethyl)piperazin-1-yl)phenyl)amino)piperidine-2,6-dione]",,< 30
